Experiments:
Test in all cases: MTT assay: in vitro inhibition of growth by deuterium oxide
Type in all cases: cell-based, human
[1] = test system: SKOV3 ovarian cancer cell line
Procedure: (§1) Studies of in vitro inhibition of growth of human tumor cells by deuterium oxide, by the MTT (3-(4,5-dimethylthiazol-2-yl)-2,5-diphenyltetrazolium bromide) assay
(§2) 1. A bottle of cells that had been cultured for 3 to 4 days and were in the exponential phase was taken, a suitable amount of 0.25% Trypsin-EDTA solution was added thereto to detach the cells from the wall, and the cells were suspended in 10 ml RPMI 1640 medium containing 10% FBS. 2. The cells were counted on a hemocytometer, and generally viable cells should be not less than 97%. 3. The cell suspension was diluted with a complete medium to prepare a suspension containing 1×10^4 cells/ml. 4. To each well of a 12-well culture plate, 300 μl cell suspension was added. The addition of cells should be finished within 4 hours. The plate was placed in an incubator at 37° C. and 5% CO2 for 24 hours. 5. Powdery RPMI Medium 1640 (Gibco, USA, Cat#: 31800-022) was dissolved in deuterium oxide (provided by Cambridge Isotope Laboratories, Inc. (US)) to prepare a cell culture medium (unless particularly specified, all culture media used in the Examples hereinafter were prepared from powdery RPMI Medium 1640 and deuterium oxide) at a concentration shown in Table 1, which was added into the cell culture plate. 6. The cell culture plate was incubated for 3 days in an incubator at 37° C., 5% CO2 and 100% humidity. 7. A solution of 1 mg/ml MTT was prepared in a serum-free RPMI1640 medium, added to the plate at 200 μl/well, and incubated at 37° C. for 4 hours, to allow MTT to be reduced to formazan. 8. The supernatant was removed by pipetting, 200 μl DMSO was added to dissolve formazan, and the solution was well mixed on a platform shaker. 9. Absorbance of each well was measured on an ELISA reader with a detection wavelength of 570 nm and a reference wavelength of 450 nm. 10. The assay was repeated one more time.
(§3) Calculation of results: Inhibition of growth of tumor cells by deuterium oxide was calculated using tumor cells treated with sodium chloride physiological solution as a control group. Inhibition of cell growth was plotted against amounts of deuterium oxide to obtain a dose response curve, from which the half maximal inhibitory concentration (IC50) of deuterium oxide was derived.
(§4) Inhibition of tumor cell growth (%)=(1−OD test/OD control)×100%

[2] = test system: BGC-823 gastric cancer cell line
Procedure: as §1, §2, §3, §4

[3] = test system: U2-OS osteosarcoma cell line
Procedure: as §1, §2, §3, §4

[4] = test system: PANC-1 pancreatic cancer cell line
Procedure: as §1, §2, §3, §4

[5] = test system: HCT-116 colon cancer cell line
Procedure: as §1, §2, §3, §4

[6] = test system: PC-3 prostate cancer cell line
Procedure: as §1, §2, §3, §4

[7] = test system: Caov-3 ovarian cancer cell line; settings: expressed in v/v %
Procedure: as §1, §2, §3, §4

[8] = test system: A549 lung cancer cell line
Procedure: as §1, §2, §3, §4

[9] = test system: K562 leukemia cell line
Procedure: as §1, §2, §3, §4

## [2H]O[2H] [Deuterium oxide]
[1]; deuterium oxide 1.2% (v/v)
  Inhibition of growth (%): 1.82%
[1]; deuterium oxide 2.5% (v/v)
  Inhibition of growth (%): 7.35%
[1]; deuterium oxide 5% (v/v)
  Inhibition of growth (%): 8.33%
[1]; deuterium oxide 10% (v/v)
  Inhibition of growth (%): 9.65%
[1]; deuterium oxide 20% (v/v)
  Inhibition of growth (%): 12.64%
[1]; deuterium oxide 30% (v/v)
  Inhibition of growth (%): 16.69%
[1]; deuterium oxide 40% (v/v)
  Inhibition of growth (%): 32.76%
[1]; deuterium oxide 50% (v/v)
  Inhibition of growth (%): 41.80%
[1]; deuterium oxide 60% (v/v)
  Inhibition of growth (%): 59.84%
[1]; deuterium oxide 70% (v/v)
  Inhibition of growth (%): 74.07%
[1]; deuterium oxide 80% (v/v)
  Inhibition of growth (%): 90.42%
[2]; deuterium oxide 1.2% (v/v)
  Inhibition of growth (%): 2.74%
[2]; deuterium oxide 2.5% (v/v)
  Inhibition of growth (%): 2.15%
[2]; deuterium oxide 5% (v/v)
  Inhibition of growth (%): −4.23%
[2]; deuterium oxide 10% (v/v)
  Inhibition of growth (%): −3.60%
[2]; deuterium oxide 20% (v/v)
  Inhibition of growth (%): 9.09%
[2]; deuterium oxide 30% (v/v)
  Inhibition of growth (%): 12.32%
[2]; deuterium oxide 40% (v/v)
  Inhibition of growth (%): 7.50%
[2]; deuterium oxide 50% (v/v)
  Inhibition of growth (%): 15.99%
[2]; deuterium oxide 60% (v/v)
  Inhibition of growth (%): 37.83%
[2]; deuterium oxide 70% (v/v)
  Inhibition of growth (%): 61.90%
[2]; deuterium oxide 80% (v/v)
  Inhibition of growth (%): 74.57%
[2]; expressed in v/v %
  IC10: 26.92%
  IC50: 96.68%
[3]; deuterium oxide 1.2% (v/v)
  Inhibition of growth (%): −2.81%
[3]; deuterium oxide 2.5% (v/v)
  Inhibition of growth (%): 4.20%
[3]; deuterium oxide 5% (v/v)
  Inhibition of growth (%): −1.64%
[3]; deuterium oxide 10% (v/v)
  Inhibition of growth (%): −8.55%
[3]; deuterium oxide 20% (v/v)
  Inhibition of growth (%): −3.12%
[3]; deuterium oxide 30% (v/v)
  Inhibition of growth (%): 11.99%
[3]; deuterium oxide 40% (v/v)
  Inhibition of growth (%): 10.23%
[3]; deuterium oxide 50% (v/v)
  Inhibition of growth (%): 18.21%
[3]; deuterium oxide 60% (v/v)
  Inhibition of growth (%): 23.43%
[3]; deuterium oxide 70% (v/v)
  Inhibition of growth (%): 29.64%
[3]; deuterium oxide 80% (v/v)
  Inhibition of growth (%): 45.84%
[3]; expressed in v/v %
  IC10: 24.99%
  IC50: 86.25%
[4]; deuterium oxide 1.2% (v/v)
  Inhibition of growth (%): 7.37%
[4]; deuterium oxide 2.5% (v/v)
  Inhibition of growth (%): 13.88%
[4]; deuterium oxide 5% (v/v)
  Inhibition of growth (%): 14.41%
[4]; deuterium oxide 10% (v/v)
  Inhibition of growth (%): 8.43%
[4]; deuterium oxide 20% (v/v)
  Inhibition of growth (%): 9.06%
[4]; deuterium oxide 30% (v/v)
  Inhibition of growth (%): 17.81%
[4]; deuterium oxide 40% (v/v)
  Inhibition of growth (%): 26.73%
[4]; deuterium oxide 50% (v/v)
  Inhibition of growth (%): 31.62%
[4]; deuterium oxide 60% (v/v)
  Inhibition of growth (%): 50.31%
[4]; deuterium oxide 70% (v/v)
  Inhibition of growth (%): 57.29%
[4]; deuterium oxide 80% (v/v)
  Inhibition of growth (%): 79.05%
[4]; expressed in v/v %
  IC10: 3.03%
  IC50: 65.38%
[5]; deuterium oxide 1.2% (v/v)
  Inhibition of growth (%): 11.81%
[5]; deuterium oxide 2.5% (v/v)
  Inhibition of growth (%): 31.55%
[5]; deuterium oxide 5% (v/v)
  Inhibition of growth (%): 21.64%
[5]; deuterium oxide 10% (v/v)
  Inhibition of growth (%): 18.58%
[5]; deuterium oxide 20% (v/v)
  Inhibition of growth (%): 23.32%
[5]; deuterium oxide 30% (v/v)
  Inhibition of growth (%): 30.21%
[5]; deuterium oxide 40% (v/v)
  Inhibition of growth (%): 37.43%
[5]; deuterium oxide 50% (v/v)
  Inhibition of growth (%): 48.43%
[5]; deuterium oxide 60% (v/v)
  Inhibition of growth (%): 66.31%
[5]; deuterium oxide 70% (v/v)
  Inhibition of growth (%): 70.42%
[5]; deuterium oxide 80% (v/v)
  Inhibition of growth (%): 94.62%
[5]; expressed in v/v %
  IC10: 0.25%
  IC50: 51.13%
[6]; deuterium oxide 1.2% (v/v)
  Inhibition of growth (%): 0.46%
[6]; deuterium oxide 2.5% (v/v)
  Inhibition of growth (%): 4.33%
[6]; deuterium oxide 5% (v/v)
  Inhibition of growth (%): −2.50%
[6]; deuterium oxide 10% (v/v)
  Inhibition of growth (%): 8.81%
[6]; deuterium oxide 20% (v/v)
  Inhibition of growth (%): −16.46%
[6]; deuterium oxide 30% (v/v)
  Inhibition of growth (%): 26.67%
[6]; deuterium oxide 40% (v/v)
  Inhibition of growth (%): 43.19%
[6]; deuterium oxide 50% (v/v)
  Inhibition of growth (%): 59.42%
[6]; deuterium oxide 60% (v/v)
  Inhibition of growth (%): 60.84%
[6]; deuterium oxide 70% (v/v)
  Inhibition of growth (%): 73.42%
[6]; deuterium oxide 80% (v/v)
  Inhibition of growth (%): 87.08%
[6]; expressed in v/v %
  IC10: 9.35%
  IC50: 61.34%
[7]
  IC10: 11.51%
  IC50: 46.83%
[8]; deuterium oxide 1.2% (v/v)
  Inhibition of growth (%): 7.71%
[8]; deuterium oxide 2.5% (v/v)
  Inhibition of growth (%): 17.64%
[8]; deuterium oxide 5% (v/v)
  Inhibition of growth (%): 18.05%
[8]; deuterium oxide 10% (v/v)
  Inhibition of growth (%): 18.88%
[8]; deuterium oxide 20% (v/v)
  Inhibition of growth (%): 16.19%
[8]; deuterium oxide 30% (v/v)
  Inhibition of growth (%): 27.71%
[8]; deuterium oxide 40% (v/v)
  Inhibition of growth (%): 39.37%
[8]; deuterium oxide 50% (v/v)
  Inhibition of growth (%): 42.67%
[8]; deuterium oxide 60% (v/v)
  Inhibition of growth (%): 55.42%
[8]; deuterium oxide 70% (v/v)
  Inhibition of growth (%): 70.88%
[8]; deuterium oxide 80% (v/v)
  Inhibition of growth (%): 92.34%
[8]; expressed in v/v %
  IC10: 1.52%
  IC50: 55.32%
[9]; deuterium oxide 1.2% (v/v)
  Inhibition of growth (%): −2.47%
[9]; deuterium oxide 2.5% (v/v)
  Inhibition of growth (%): 6.51%
[9]; deuterium oxide 5% (v/v)
  Inhibition of growth (%): 4.23%
[9]; deuterium oxide 10% (v/v)
  Inhibition of growth (%): −7.60%
[9]; deuterium oxide 20% (v/v)
  Inhibition of growth (%): 9.10%
[9]; deuterium oxide 30% (v/v)
  Inhibition of growth (%): 22.72%
[9]; deuterium oxide 40% (v/v)
  Inhibition of growth (%): 39.51%
[9]; deuterium oxide 50% (v/v)
  Inhibition of growth (%): 55.51%
[9]; deuterium oxide 60% (v/v)
  Inhibition of growth (%): 70.13%
[9]; deuterium oxide 70% (v/v)
  Inhibition of growth (%): 88.59%
[9]; deuterium oxide 80% (v/v)
  Inhibition of growth (%): 93.24%
[9]; expressed in v/v %
  IC10: 14.83%
  IC50: 51.72%
